Assay results from patent US20130331389A1, “Methods and Compositions for Cardiomyocyte Replenishment by Endogenous and Progenitor Stem Cells” (NATIONAL CHENG KUNG UNIVERSITY, priority 2012, published 2013).

Experiments:
Type in all cases: in vivo, mouse
[1] = system: MerCreMer/ZEG (M/Z) mice; experiment: Echocardiography after myocardial infarction (ejection fraction); details: echocardiography at one and two months post-infarction
Procedure: (§1) M/Z mice were subjected to experimental myocardial infarction (MI) one month after the last tamoxifen injection. MI was generated by ligating the left anterior descending coronary artery at 2-3 mm distal to the left atrial appendage. For cell transplantation experiments, intramyocardial injections were performed immediately after coronary ligation. A total of 6×10^5 cardiac Sca-1^+ cells were injected per mouse in two divided injections (5 μl/injection). For BrdU labeling, the mice were subcutaneously implanted with osmotic minipump (Alzet) at the time of surgery and 40 μg/μl of BrdU (Sigma) was administrated. For immunohistological studies, mice were sacrificed and the hearts were harvested at different time points following experimental MI surgery. Cardiac performances were assessed by echocardiography at 28 and 56 days after operation using Vevo 770 (Visualsonics, Toronto, Canada).
To induce Cre recombination to achieve GFP labeling of cardiomyocytes, tamoxifen (Sigma) was dissolved in sunflower oil (Sigma) at a concentration of 5 mg/ml. The tamoxifen solution was injected intraperitoneally into M/Z mice daily at a dosage of 40 μg per 1 g body weight for 14 days, and the same dosage was injected twice daily for short-term labeling using methods known in the art (Laugwitz, K.-L. et al. Nature 433, 647-653 (2005)). […]

[2] = system: MerCreMer/ZEG (M/Z) mice; experiment: Cardiomyocyte replenishment after myocardial infarction, GFP+ / β-Gal+ cardiomyocyte counting; details: for stem cell-mediated cardiomyocyte reconstitution: aged mice (>18 months), 14 days post-MI
Procedure: All experiments involving animals were conducted in accordance with the Guide for the Use and Care of Laboratory Animals, and all animal protocols have been approved by National Cheng Kung University. Sca-1^− GFP, B6.Cg-Tg(Ly6a-GFP)G5Dzk/J and EP2^−/−, B6.129-Ptger2^tm/Brey/J mice were obtained from Jackson Laboratory. The double transgenic MerCreMer/ZEG (M/Z) mice were generated by crossbreeding MerCreMer and Z/EG mice (Jackson Laboratory), which have C57BL/6SV129 and C57BL/6J (N7) background strains, respectively. The MerCreMer mice contain a tamoxifen-inducible Cre recombinase fusion protein driven by the cardiomyocyte-specific α-MHC promoter. In Z/EG mice, GFP replace constitutive β-Gal expression after the removal of a LoxP-flanked stop sequence by Cre.
as §1
To induce Cre recombination to achieve GFP labeling of cardiomyocytes, tamoxifen (Sigma) was dissolved in sunflower oil (Sigma) at a concentration of 5 mg/ml. The tamoxifen solution was injected intraperitoneally into M/Z mice daily at a dosage of 40 μg per 1 g body weight for 14 days, and the same dosage was injected twice daily for short-term labeling using methods known in the art (Laugwitz, K.-L. et al. Nature 433, 647-653 (2005)). All experimental conditions were optimized prior to the PGE2, indomethacin and TGF-β Type I Receptor Kinase Inhibitor II (ALK5 Inhibitor II, ALK5i, Merck) treatments. The mice treated with PGE2 or PGI2 (Vegiopoulos, A. et al. Science 328, 1158-1161 (2010)) (both from Sigma) were injected intraperitoneally with 3.33 ng of drug per 1 g of body weight dissolved in absolute ethanol twice daily. For the indomethacin treatment, mice were fed with water containing indomethacin (Sigma, 15 μg/ml) for different periods of time. The indomethacin-containing water was changed every 3 days. The mice subjected to the celecoxib (Lyons, T. R. et al. Nat. Med. 17, 1109-1115 (2011)) (Sigma) treatment were injected intraperitoneally with 5 μg of drug per 1 g of body weight daily. For ALK5i treatment, aged mice were injected intraperitoneally once per day with 1 μg of drug per 1 g of body weight one day before surgery and continuously until day 10 post-MI. Celecoxib and ALK5i were dissolved in ethanol and DMSO, respectively.
All of the cellular quantifications were performed double-blindly to minimize personal bias. […] For the cardiomyocyte cell counts, 3 sections from each heart, and 2 infarction border zones and 1 remote area from each section were analyzed at a magnification of 200× by light microscopy. Cells with visible sarcomere structures were analyzed, and the average number of cells counted was 171.8±5.8 per photo image. For the small cardiac cell counts, more than five sections from each heart were analyzed at a magnification of 400× using fluorescence microscopy. The average number of cells counted was 17.01±0.99 per photo image, and more than one hundred and fifty cells were analyzed from each heart. As quantification result is the averaged values calculated from the pictures taken from six border zone sections per heart, personal variation has been minimized. […]

[3] = system: MMP2, MMP9, TNF-α, IL-1β and IL-6; experiment: Quantitative RT-PCR of inflammatory cytokines in infarct region; details: young mice
Procedure: (§2) To induce Cre recombination to achieve GFP labeling of cardiomyocytes, tamoxifen (Sigma) was dissolved in sunflower oil (Sigma) at a concentration of 5 mg/ml. The tamoxifen solution was injected intraperitoneally into M/Z mice daily at a dosage of 40 μg per 1 g body weight for 14 days, and the same dosage was injected twice daily for short-term labeling using methods known in the art (Laugwitz, K.-L. et al. Nature 433, 647-653 (2005)). All experimental conditions were optimized prior to the PGE2, indomethacin and TGF-β Type I Receptor Kinase Inhibitor II (ALK5 Inhibitor II, ALK5i, Merck) treatments. The mice treated with PGE2 or PGI2 (Vegiopoulos, A. et al. Science 328, 1158-1161 (2010)) (both from Sigma) were injected intraperitoneally with 3.33 ng of drug per 1 g of body weight dissolved in absolute ethanol twice daily. […]
The total RNA isolated from the ischemic region or remote area of MI hearts was reverse transcribed using the SuperScript III (Invitrogen) system according to the manufacturer's protocol. For quantitative PCR, the SYBR Green reagent (Maestrogen) was used according to the manufacturer's protocol. The analysis of relative gene expression was performed using the 2̂[−delta delta Ct] method and sequence-specific primers designed for semi-quantitative PCR and real-time RT-PCR (FIG. 11).

[4] = system: M1 (CD11b+/CD11c+) and M2 (CD11b+/CD206+) macrophages; experiment: Immunostaining of M1 and M2 macrophages in heart sections day 3 post-infarction; details: young mice
Procedure: as §2, with “daily. For the indomethacin treatment, mice were fed with water containing indomethacin (Sigma, 15 μg/ml) for different periods of time.” for “daily.”
The harvested hearts were fixed with 4% paraformaldehyde and embedded in paraffin. […] A DAB substrate kit (Vector Laboratories) was used for immunohistochemistry and appropriate secondary antibodies (Invitrogen or Abcam) were used for visualization under a fluorescence microscope. […] The appropriate secondary antibodies (Invitrogen or Jackson ImmunoResearch) were used for visualization under a fluorescence microscope. […]

## CCCCC[C@H](O)/C=C/C1C(O)CC(=O)C1C/C=C\CCCC(=O)O (stereo partly drawn) [PGE2, (5Z,11α,13E,15S)-7-[3-hydroxy-2-(3-hydroxyoct-1-enyl)-5-oxo-cyclopentyl]hept-5-enoic acid]
[1]
  cardiac function post-MI: improved
[2]; border zone, P<0.01 versus sham or MI
  stem cell-mediated cardiomyocyte reconstitution: successfully recover
[2]; remote area
  stem cell-mediated cardiomyocyte reconstitution: not in the remote area
[2]; border zone, PGE2 plus indomethacin, P<0.01
  rescue of cardiomyocyte replenishment compared to indomethacin treatment alone: about 10%
[2]; border zone, young mice, 3.33 ng per 1 g i.p. twice daily for 14 days, P<0.01
  increase of cardiomyocyte replenishment compared to the vehicle control: about 9%
[3]
  expression of inflammatory cytokines acting downstream of PGE2: further enhanced
[4]
  number of M1 macrophage: reduced
  number of M2 macrophage: increased
